Source: PMC3948331 (Future medicinal chemistry, 2013)

Legend:
[1] = tested on: T. cruzi, strain Tulahuen C4 amastigotes; test: In vitro activity against T. cruzi intracellular amastigotes in L6 host cells; format: cell-based, Trypanosoma cruzi; settings: for IC50: Trypanosoma cruzi, TULAHUEN, L6, read-out: T. cruzi IC-50; for Selectivity: IC50 in L6 cells/IC50 in T. cruzi, compounds 9–13
guinea pigs = guinea pigs treated with Bnz; cited from earlier work
S. typhimurium strains = settings: cited from earlier work
[2] = Cytotoxicity assessment in the host L6 cells; format: cell-based; settings: rat, L6 cells (rat skeletal myoblasts)
[3] = tested on: transgenic T. cruzi Y strain expressing firefly luciferase; test: In vivo anti-T. cruzi fast luminescence assay in infected Balb/c mice; design: species or system Trypanosoma cruzi; settings: for in vivo antichagasic activity compared with Bnz: 10-day treatment, Bnz 15 mg/kg/day
Balb/c mice = test: Apparent toxicity in treated T. cruzi-infected mice; format: in vivo; settings: 30 mg/kg/day i.p., 5- and 10-day treatment
[4] = Microsomal stability screen; format: in vitro ADME; settings: mouse, microsomes, 1 h, 1 µM, pH 7.4
Plasma stability screen = format: in vitro ADME, mouse; settings: 5 µM
[5] = Caco-2 monolayer permeability; settings: human
in vitro = settings: human, Caco-2
[6] = logD at pH 6; threshold for high permeability; cited from earlier work
zebrafish embryos = test: Toxicity studies in zebrafish embryos; settings: incubation of embryos; data not shown
[7] = i.p., 5–10 days treatment at the doses of Figure 1, more than 80 and up to 100%

For `O=C(Cn1ccnc1[N+](=O)[O-])NCc1ccccc1` [Bnz, benznidazole], the IC50 [1] is listed as 1430 nM, the “mutagenic derivatives in serum and urine detectable by the Ames test” value (guinea pigs) is listed as “not metabolized by the mammalian host into stable mutagenic derivatives” and the “concentrations showing significant mutagenicity” value (S. typhimurium strains) is listed as less than 62 µg/mL.

Compound `Cl.O=[N+]([O-])c1ncn(CCCNCCc2cccc(C(F)(F)F)c2)n1` [Compound 9, [3-(3-nitro-1H-1,2,4-triazol-1-yl)propyl] ({2-[3-(trifluoromethyl)phenyl]ethyl})amine hydrochloride] has a Selectivity [1] of 116, an IC50 [1] of 775 nM and an IC50 [2] of 90100 nM. For the same compound, the “drop of parasite index” value ([3]; 30 mg/kg/day i.p., after 5-day treatment) was “about 88%”, the “drop of parasite index” value ([3]; 30 mg/kg/day i.p., after 10-day treatment) was roughly 85% and the “drop of parasite index” value [3, 7] was “more than 80%”. The “toxicity in treated mice” value (Balb/c mice) was “without any sign of toxicity”.

Compound `O=[N+]([O-])c1ncn(CCCNc2nc3ccc(Cl)cc3s2)n1` [Compound 10, 6-chloro-N-[3-(3-nitro-1H-1,2,4-triazol-1-yl)propyl]-1,3-benzothiazol-2-amine] has a Selectivity [1] of 1725, an IC50 [1] of 59 nM and an IC50 [2] of 102000 nM. For the same compound, the “in vivo antichagasic activity” value ([3]; 10 mg/kg/day i.p., 5- or 10-day treatment) was “failed to demonstrate in vivo antichagasic activity”, the “Mean remaining parent comp (+)NADPH” value [4] was 1.0% and the “Mean remaining parent comp (−)NADPH” value [4] was 108%. The “Mean remaining parent comp” value (Plasma stability screen; mouse plasma, 60 min, 37°C) was 87.3%.

For `O=[N+]([O-])c1ncn(CCCCNS(=O)(=O)c2ccc(Cl)s2)n1` [Compound 11, 5-chloro-N-[4-(3-nitro-1H-1,2,4-triazol-1-yl)butyl]thiophene-2-sulfonamide], the Selectivity [1] was 277.5, the IC50 [1] was 462 nM and the IC50 [2] was 128000 nM. For the same compound, the parasite signal ([3]; 15 mg/kg/day i.p., after 10 days of treatment, greater activity than Bnz) was “no detectable parasite signal” and the “drop of parasite index” value [3, 7] was “more than 80%”.

`O=[N+]([O-])c1ncn(CCCCNS(=O)(=O)c2cc(Cl)c(Cl)s2)n1` [Compound 12, 4,5-dichloro-N-[4-(3-nitro-1H-1,2,4-triazol-1-yl)butyl]thiophene-2-sulfonamide] gave a Selectivity [1] of 261.1, an IC50 [1] of 373 nM and an IC50 [2] of 97300 nM. The “in vivo antichagasic activity compared with Bnz” value ([3]; 15 mg/kg/day i.p.) was “failed to perform better than Bnz”.

For `O=C(NCCCCn1cnc([N+](=O)[O-])n1)c1nc2ccccc2s1` [Compound 13, N-[4-(3-nitro-1H-1,2,4-triazol-1-yl)butyl]-1,3-benzothiazole-2-carboxamide], the Selectivity [1] was 364.4, the IC50 [1] was 422 nM and the IC50 [2] was 154000 nM. For the same compound, the “in vivo antichagasic activity compared with Bnz” value ([3]; 15 mg/kg/day i.p.) was “failed to perform better than Bnz”.

With `CC(C)[N+](C)(CCOC(=O)C1c2ccccc2Oc2ccccc21)C(C)C` [Propantheline] the “Mean remaining parent comp” value (Plasma stability screen; mouse plasma, 60 min, 37°C) was 30.4%.

`CNC(=C[N+](=O)[O-])NCCSCc1ccc(CN(C)C)o1` [Ranitidine] showed a Papp A→B at 2 h, 10 µM [5] of 0.5 ×10⁻⁶ cm/s.

With `CC(=O)CC(c1ccccc1)c1c(O)c2ccccc2oc1=O` (stereo not shown) [Warfarin] the “Mean remaining parent comp (+)NADPH” value [4] was 83.9%, the “Mean remaining parent comp” value (Plasma stability screen; mouse, plasma, 1 h) was 97.8% and the Papp A→B at 2 h, 10 µM (in vitro) was 44.2 ×10⁻⁶ cm/s.

For `CC(CCc1ccccc1)NCC(O)c1ccc(O)c(C(N)=O)c1` (stereo not shown) [labetalol], the logD6 [6] is given as −0.42.

In the case of `CC1CS(=O)(=O)CCN1/N=C/c1ccc([N+](=O)[O-])o1` (stereo not shown) [nifurtimox], the “effect on zebrafish embryos' development” value (zebrafish embryos) is reported as “weakened heart beat, pericardial oedema or death”.
